ChEMBL document CHEMBL3885881, “DrugMatrix”

Species on record: Rattus norvegicus
Assay: DrugMatrix - Regimen: Daily Repeat
Type: toxicity, organism-based, Sprague-Dawley
Parameters: regimen Daily Repeat, gender Male, age 6-8 weeks
Conditions: in vivo, po, route oral GAVAGE, vehicle .5 % CMC; for ABSOLUTE BASOPHIL / ABSOLUTE EOSINOPHIL / ABSOLUTE LYMPHOCYTE / ABSOLUTE MONOCYTE / ABSOLUTE SEGMENTED NEUTROPHIL / BASOPHIL / EOSINOPHIL / ERYTHROCYTE COUNT / HEMATOCRIT / HEMOGLOBIN / LEUKOCYTE COUNT / LYMPHOCYTE / MEAN CORPUSCULAR HEMOGLOBIN / MEAN CORPUSCULAR HEMOGLOBIN CONCENTRATION / MEAN CORPUSCULAR VOLUME / MONOCYTE / NEUTROPHIL / NUCLEATED RED BLOOD CELLS / PLATELET COUNT: tissue Blood; for ALANINE AMINOTRANSFERASE / ALBUMIN / ALKALINE PHOSPHATASE / ASPARTATE AMINOTRANSFERASE / BLOOD UREA NITROGEN / CARBON DIOXIDE / CHLORIDE / CHOLESTEROL / CREATINE PHOSPHOKINASE / CREATININE / GLUCOSE / LACTATE DEHYDROGENASE / LIPASE / PHOSPHORUS / POTASSIUM / SODIUM / TOTAL BILIRUBIN / TOTAL PROTEIN / URIC ACID: tissue Plasma
[1] = 10 mg/kg, 72 h, dose level Low, time 3 day
[2] = 10 mg/kg, 120 h, dose level Low, time 5 day
[3] = 310 mg/kg, 72 h, dose level High, time 3 day
[4] = 310 mg/kg, 120 h, dose level High, time 5 day

## O=C1CN=C(c2ccccc2)c2cc([N+](=O)[O-])ccc2N1 [NITRAZEPAM]
[1]
  ABSOLUTE BASOPHIL: 0 CELLS/uL
  ABSOLUTE EOSINOPHIL: 19 CELLS/uL
  ABSOLUTE LYMPHOCYTE: 6878.67 CELLS/uL
  ABSOLUTE MONOCYTE: 19 CELLS/uL
  ABSOLUTE SEGMENTED NEUTROPHIL: 750 CELLS/uL
  BASOPHIL: 0%
  EOSINOPHIL: 0.33%
  ERYTHROCYTE COUNT: 5.13 x10E6/uL
  HEMATOCRIT: 31.73%
  HEMOGLOBIN: 12.93 G/DL
  LEUKOCYTE COUNT: 7.67 x10E3/uL
  LYMPHOCYTE: 90.33%
  MEAN CORPUSCULAR HEMOGLOBIN: 25.23 pg
  MEAN CORPUSCULAR HEMOGLOBIN CONCENTRATION: 40.73 G/DL
  MEAN CORPUSCULAR VOLUME: 61.9 fL
  MONOCYTE: 0.33%
  NEUTROPHIL: 9%
  NUCLEATED RED BLOOD CELLS: 0 /100WBC
  PLATELET COUNT: 847 x10E3/uL
  ALANINE AMINOTRANSFERASE: 48.67 u/L
  ALBUMIN: 4.23 G/DL
  ALKALINE PHOSPHATASE: 424.33 u/L
  ASPARTATE AMINOTRANSFERASE: 76.67 u/L
  BLOOD UREA NITROGEN: 15 mg/dL
  CARBON DIOXIDE: 31 mmol/L
  CHLORIDE: 103 MEQ/L
  CHOLESTEROL: 76.67 mg/dL
  CREATINE PHOSPHOKINASE: 169 u/L
  CREATININE: 0.18 mg/dL
  GLUCOSE: 141.67 mg/dL
  LACTATE DEHYDROGENASE: 124.67 u/L
  LIPASE: 10 u/L
  PHOSPHORUS: 10.73 mg/dL
  POTASSIUM: 5.83 MEQ/L
  SODIUM: 149.6 MEQ/L
  TOTAL BILIRUBIN: 0.2 mg/dL
  TOTAL PROTEIN: 5.43 G/DL
  URIC ACID: 0.9 mg/dL
[2]
  ABSOLUTE BASOPHIL: 0 CELLS/uL
  ABSOLUTE EOSINOPHIL: 0 CELLS/uL
  ABSOLUTE LYMPHOCYTE: 11358.67 CELLS/uL
  ABSOLUTE MONOCYTE: 0 CELLS/uL
  ABSOLUTE SEGMENTED NEUTROPHIL: 1008 CELLS/uL
  BASOPHIL: 0%
  EOSINOPHIL: 0%
  ERYTHROCYTE COUNT: 5.81 x10E6/uL
  HEMATOCRIT: 35.47%
  HEMOGLOBIN: 13.93 G/DL
  LEUKOCYTE COUNT: 12.37 x10E3/uL
  LYMPHOCYTE: 92%
  MEAN CORPUSCULAR HEMOGLOBIN: 24.07 pg
  MEAN CORPUSCULAR HEMOGLOBIN CONCENTRATION: 39.33 G/DL
  MEAN CORPUSCULAR VOLUME: 61.13 fL
  MONOCYTE: 0%
  NEUTROPHIL: 8%
  NUCLEATED RED BLOOD CELLS: 0 /100WBC
  PLATELET COUNT: 1206.67 x10E3/uL
  ALANINE AMINOTRANSFERASE: 43.67 u/L
  ALBUMIN: 4.43 G/DL
  ALKALINE PHOSPHATASE: 331.67 u/L
  ASPARTATE AMINOTRANSFERASE: 77.33 u/L
  BLOOD UREA NITROGEN: 18 mg/dL
  CARBON DIOXIDE: 26.67 mmol/L
  CHLORIDE: 102 MEQ/L
  CHOLESTEROL: 67.67 mg/dL
  CREATINE PHOSPHOKINASE: 186.67 u/L
  CREATININE: 0.2 mg/dL
  GLUCOSE: 147.33 mg/dL
  LACTATE DEHYDROGENASE: 109.33 u/L
  LIPASE: 9.33 u/L
  PHOSPHORUS: 13.13 mg/dL
  POTASSIUM: 6.92 MEQ/L
  SODIUM: 147.33 MEQ/L
  TOTAL BILIRUBIN: 0.23 mg/dL
  TOTAL PROTEIN: 6.4 G/DL
  URIC ACID: 2.13 mg/dL
[3]
  ABSOLUTE BASOPHIL: 0 CELLS/uL
  ABSOLUTE EOSINOPHIL: 0 CELLS/uL
  ABSOLUTE LYMPHOCYTE: 11568.33 CELLS/uL
  ABSOLUTE MONOCYTE: 226.67 CELLS/uL
  ABSOLUTE SEGMENTED NEUTROPHIL: 871.67 CELLS/uL
  BASOPHIL: 0%
  EOSINOPHIL: 0%
  ERYTHROCYTE COUNT: 5.41 x10E6/uL
  HEMATOCRIT: 34%
  HEMOGLOBIN: 13.63 G/DL
  LEUKOCYTE COUNT: 12.67 x10E3/uL
  LYMPHOCYTE: 90.67%
  MEAN CORPUSCULAR HEMOGLOBIN: 25.23 pg
  MEAN CORPUSCULAR HEMOGLOBIN CONCENTRATION: 40.1 G/DL
  MEAN CORPUSCULAR VOLUME: 62.87 fL
  MONOCYTE: 1.67%
  NEUTROPHIL: 7.67%
  NUCLEATED RED BLOOD CELLS: 0 /100WBC
  PLATELET COUNT: 1116 x10E3/uL
  ALANINE AMINOTRANSFERASE: 48 u/L
  ALBUMIN: 4.03 G/DL
  ALKALINE PHOSPHATASE: 270 u/L
  ASPARTATE AMINOTRANSFERASE: 93.33 u/L
  BLOOD UREA NITROGEN: 15.67 mg/dL
  CARBON DIOXIDE: 27.67 mmol/L
  CHLORIDE: 100 MEQ/L
  CHOLESTEROL: 88.67 mg/dL
  CREATINE PHOSPHOKINASE: 222.67 u/L
  CREATININE: 0.17 mg/dL
  GLUCOSE: 150.33 mg/dL
  LACTATE DEHYDROGENASE: 150.67 u/L
  LIPASE: 8 u/L
  PHOSPHORUS: 11.93 mg/dL
  POTASSIUM: 6.17 MEQ/L
  SODIUM: 143.67 MEQ/L
  TOTAL BILIRUBIN: 0.2 mg/dL
  TOTAL PROTEIN: 5.7 G/DL
  URIC ACID: 1.3 mg/dL
[4]
  ABSOLUTE BASOPHIL: 0 CELLS/uL
  ABSOLUTE EOSINOPHIL: 37.33 CELLS/uL
  ABSOLUTE LYMPHOCYTE: 8871.33 CELLS/uL
  ABSOLUTE MONOCYTE: 96.67 CELLS/uL
  ABSOLUTE SEGMENTED NEUTROPHIL: 1228 CELLS/uL
  BASOPHIL: 0%
  EOSINOPHIL: 0.33%
  ERYTHROCYTE COUNT: 6.24 x10E6/uL
  HEMATOCRIT: 37.73%
  HEMOGLOBIN: 14.83 G/DL
  LEUKOCYTE COUNT: 10.23 x10E3/uL
  LYMPHOCYTE: 86.67%
  MEAN CORPUSCULAR HEMOGLOBIN: 23.77 pg
  MEAN CORPUSCULAR HEMOGLOBIN CONCENTRATION: 39.33 G/DL
  MEAN CORPUSCULAR VOLUME: 60.47 fL
  MONOCYTE: 1%
  NEUTROPHIL: 12%
  NUCLEATED RED BLOOD CELLS: 0 /100WBC
  PLATELET COUNT: 1180.33 x10E3/uL
  ALANINE AMINOTRANSFERASE: 39.67 u/L
  ALBUMIN: 4.13 G/DL
  ALKALINE PHOSPHATASE: 195.33 u/L
  ASPARTATE AMINOTRANSFERASE: 76.33 u/L
  BLOOD UREA NITROGEN: 17.33 mg/dL
  CARBON DIOXIDE: 26.33 mmol/L
  CHLORIDE: 104 MEQ/L
  CHOLESTEROL: 87.67 mg/dL
  CREATINE PHOSPHOKINASE: 160 u/L
  CREATININE: 0.19 mg/dL
  GLUCOSE: 148.67 mg/dL
  LACTATE DEHYDROGENASE: 101 u/L
  LIPASE: 40.67 u/L
  PHOSPHORUS: 9.83 mg/dL
  POTASSIUM: 6.59 MEQ/L
  SODIUM: 145.77 MEQ/L
  TOTAL BILIRUBIN: 0.13 mg/dL
  TOTAL PROTEIN: 6 G/DL
  URIC ACID: 1.17 mg/dL
